From patent publication US8685970B2, “Quinolines and related analogs as sirtuin modulators” (GlaxoSmithKline, LLC, priority 2008, dated 2014) come the findings set out here.

This test deals with T1, SIRT1 (Homo sapiens, UniProt Q96EB6).
T1 sequence (Q96EB6 1-747): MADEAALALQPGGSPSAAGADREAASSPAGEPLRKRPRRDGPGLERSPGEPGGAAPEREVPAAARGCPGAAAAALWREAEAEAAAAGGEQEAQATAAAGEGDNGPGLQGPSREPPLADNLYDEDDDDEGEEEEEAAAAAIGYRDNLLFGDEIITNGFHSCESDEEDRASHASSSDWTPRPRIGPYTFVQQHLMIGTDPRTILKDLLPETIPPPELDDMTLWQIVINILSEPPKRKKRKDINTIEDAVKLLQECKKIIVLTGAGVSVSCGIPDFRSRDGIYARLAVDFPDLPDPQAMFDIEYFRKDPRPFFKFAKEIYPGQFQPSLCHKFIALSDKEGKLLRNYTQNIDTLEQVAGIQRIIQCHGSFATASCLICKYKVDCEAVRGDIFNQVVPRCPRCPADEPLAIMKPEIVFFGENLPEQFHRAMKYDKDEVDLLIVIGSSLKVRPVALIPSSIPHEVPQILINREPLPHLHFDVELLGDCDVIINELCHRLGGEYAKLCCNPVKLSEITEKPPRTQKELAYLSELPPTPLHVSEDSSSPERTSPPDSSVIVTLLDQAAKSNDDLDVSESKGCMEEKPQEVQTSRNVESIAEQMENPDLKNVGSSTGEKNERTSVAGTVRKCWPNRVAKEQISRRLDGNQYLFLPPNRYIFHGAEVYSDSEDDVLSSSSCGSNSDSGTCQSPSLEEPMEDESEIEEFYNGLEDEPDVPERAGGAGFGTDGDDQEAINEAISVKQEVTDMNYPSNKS
The test can be described thus: Mass spectrometry based SIRT1 deacetylation assay (activation). The format is biochemical. The settings on record: 10 nM SIRT1, 0.5 μM peptide substrate, 120 μM βNAD+, 25 min at 25° C. The source says:
A mass spectrometry based assay was used to identify modulators of SIRT1 activity. The mass spectrometry based assay utilizes a peptide having 20 amino acid residues as follows: Ac-EE-K (biotin)-GQSTSSHSK (Ac)N1eSTEG-K(5TMR)-EE-NH2 (SEQ ID NO: 1) wherein K(Ac) is an acetylated lysine residue and Nle is a norleucine. The peptide is labeled with the fluorophore 5TMR (excitation 540 nm/emission 580 nm) at the C-terminus. The sequence of the peptide substrate is based on p53 with several modifications. In addition, the methionine residue naturally present in the sequence was replaced with the norleucine because the methionine may be susceptible to oxidation during synthesis and purification.
The mass spectrometry assay is conducted as follows: 0.5 μM peptide substrate and 120 μM βNAD^+ is incubated with 10 nM SIRT1 for 25 minutes at 25° C. in a reaction buffer (50 mM Tris-acetate pH 8, 137 mM NaCl, 2.7 mM KCl, 1 mM MgCl2, 5 mM DTT, 0.05% BSA). Test compounds may be added to the reaction as described above. The SirT1 gene is cloned into a T7-promoter containing vector and transformed into BL21(DE3). After the 25 minute incubation with SIRT1, 10 μL of 10% formic acid is added to stop the reaction. Reactions are sealed and frozen for later mass spec analysis. Determination of the mass of the substrate peptide allows for precise determination of the degree of acetylation (i.e. starting material) as compared to deacetylated peptide (product).
A control for inhibition of sirtuin activity is conducted by adding 1 μL of 500 mM nicotinamide as a negative control at the start of the reaction (e.g., permits determination of maximum sirtuin inhibition). A control for activation of sirtuin activity is conducted using 10 nM of sirtuin protein, with 1 μL of DMSO in place of compound, to determine the amount of deacetylation of the substrate at a given timepoint within the linear range of the assay. This timepoint is the same as that used for test compounds and, within the linear range, the endpoint represents a change in velocity.
For the above assay, SIRT1 protein was expressed and purified as follows. The SirT1 gene was cloned into a T7-promoter containing vector and transformed into BL21(DE3). The protein was expressed by induction with 1 mM IPTG as an N-terminal His-tag fusion protein at 18° C. overnight and harvested at 30,000×g. Cells were lysed with lysozyme in lysis buffer (50 mM Tris-HCl, 2 mM Tris[2-carboxyethyl]phosphine (TCEP), 10 μM ZnCl2, 200 mM NaCl) and further treated with sonication for 10 min for complete lysis. The protein was purified over a Ni-NTA column (Amersham) and fractions containing pure protein were pooled, concentrated and run over a sizing column (Sephadex S200 26/60 global). The peak containing soluble protein was collected and run on an Ion-exchange column (MonoQ). Gradient elution (200 mM-500 mM NaCl) yielded pure protein. This protein was concentrated and dialyzed against dialysis buffer (20 mM Tris-HCl, 2 mM TCEP) overnight. The protein was aliquoted and frozen at −80° C. until further use.
Sirtuin modulating compounds that activated SIRT1 were identified using the assay described above and are shown below in Table 1. The EC1.5 values represent the concentration of test compounds that result in 150% activation of SIRT1. The EC1.5 values for the activating compounds are represented by A (EC1.5<1.0 uM), B (EC1.5 1-25 uM), C (EC1.5>25 uM). The percent maximum fold activation is represented by A (Fold activation >200%) or B (Fold Activation <200%). “NT” indicates the compound was not tested in a particular assay.
For `O=C(Nc1cccnc1)c1cccc2ccc(-c3cccc(C(F)(F)F)c3)nc12` [Compound 31], the “% Fold Act. (percent maximum fold activation)” value is “A (Fold activation >200%)” and the “EC1.5 (concentration of test compound that results in 150% activation of SIRT1)” value is on record as “A (EC1.5<1.0 uM)”.

Turning to `O=C(Nc1ccncc1)c1cccc2ccc(-c3cccc(C(F)(F)F)c3)nc12` [Compound 32], the “% Fold Act. (percent maximum fold activation)” value is given as “A (Fold activation >200%)” and the “EC1.5 (concentration of test compound that results in 150% activation of SIRT1)” value is reported as “A (EC1.5<1.0 uM)”.

In the case of `O=C(Nc1cc[nH]n1)c1cccc2ccc(-c3cccc(C(F)(F)F)c3)nc12` [Compound 34], the “% Fold Act. (percent maximum fold activation)” value was “A (Fold activation >200%)” and the “EC1.5 (concentration of test compound that results in 150% activation of SIRT1)” value was “B (EC1.5 1-25 uM)”.

With `O=C(NCc1ccccn1)c1cccc2ccc(-c3cccc(C(F)(F)F)c3)nc12` [Compound 35], the “% Fold Act. (percent maximum fold activation)” value was “B (Fold Activation <200%)” and the “EC1.5 (concentration of test compound that results in 150% activation of SIRT1)” value is on record as “B (EC1.5 1-25 uM)”.

Take `O=C(NCc1cccnc1)c1cccc2ccc(-c3cccc(C(F)(F)F)c3)nc12` [Compound 36]: the “% Fold Act. (percent maximum fold activation)” value is recorded as “A (Fold activation >200%)” and the “EC1.5 (concentration of test compound that results in 150% activation of SIRT1)” value is listed as “C (EC1.5>25 uM)”.

As to `O=C(NCc1ccncc1)c1cccc2ccc(-c3cccc(C(F)(F)F)c3)nc12` [Compound 37], the “% Fold Act. (percent maximum fold activation)” value is “B (Fold Activation <200%)” and the “EC1.5 (concentration of test compound that results in 150% activation of SIRT1)” value is reported as “B (EC1.5 1-25 uM)”.

Regarding `O=C(NC1CCOC1=O)c1cccc2ccc(-c3cccc(C(F)(F)F)c3)nc12` (centres unmarked) [Compound 38], the “% Fold Act. (percent maximum fold activation)” value was “A (Fold activation >200%)” and the “EC1.5 (concentration of test compound that results in 150% activation of SIRT1)” value was “B (EC1.5 1-25 uM)”.

On to `O=C(NC1CCOCC1)c1cccc2ccc(-c3cccc(C(F)(F)F)c3)nc12` [Compound 39], for which the “% Fold Act. (percent maximum fold activation)” value is on record as “B (Fold Activation <200%)” and the “EC1.5 (concentration of test compound that results in 150% activation of SIRT1)” value is listed as “B (EC1.5 1-25 uM)”.

Regarding `O=C(NC1CCCC1)c1cccc2ccc(-c3cccc(C(F)(F)F)c3)nc12` [Compound 40], the “EC1.5 (concentration of test compound that results in 150% activation of SIRT1)” value is reported as “C (EC1.5>25 uM)”.

Consider `O=C(Nc1ccncn1)c1cccc2ccc(-c3cccc(C(F)(F)F)c3)nc12` [Compound 41], for which the “% Fold Act. (percent maximum fold activation)” value is reported as “A (Fold activation >200%)” and the “EC1.5 (concentration of test compound that results in 150% activation of SIRT1)” value is reported as “A (EC1.5<1.0 uM)”.

For the compound `Cc1cnc(NC(=O)c2cccc3ccc(-c4cccc(C(F)(F)F)c4)nc23)s1` [Compound 42], the “% Fold Act. (percent maximum fold activation)” value is “B (Fold Activation <200%)” and the “EC1.5 (concentration of test compound that results in 150% activation of SIRT1)” value was “A (EC1.5<1.0 uM)”.

Take `O=C(Nc1cccc2ccc(-c3ccccc3)nc12)C1CCNCC1` [Compound 43]: the “EC1.5 (concentration of test compound that results in 150% activation of SIRT1)” value is on record as “C (EC1.5>25 uM)”.

For `CC(C)(C)c1nnc(NC(=O)c2cccc3ccc(-c4cccc(C(F)(F)F)c4)nc23)s1` [Compound 44], the “% Fold Act. (percent maximum fold activation)” value was “B (Fold Activation <200%)” and the “EC1.5 (concentration of test compound that results in 150% activation of SIRT1)” value was “A (EC1.5<1.0 uM)”.

In the case of `O=C(Nc1nccs1)Nc1cccc2ccc(-c3cccc(OC(F)(F)F)c3)nc12` [Compound 45], the “% Fold Act. (percent maximum fold activation)” value was “B (Fold Activation <200%)” and the “EC1.5 (concentration of test compound that results in 150% activation of SIRT1)” value is listed as “A (EC1.5<1.0 uM)”.

As for `O=C(Nc1ccccn1)Nc1cccc2ccc(-c3cccc(OC(F)(F)F)c3)nc12` [Compound 46], the “% Fold Act. (percent maximum fold activation)” value is given as “B (Fold Activation <200%)” and the “EC1.5 (concentration of test compound that results in 150% activation of SIRT1)” value is listed as “A (EC1.5<1.0 uM)”.

`O=C(Nc1cccnc1)Nc1cccc2ccc(-c3cccc(OC(F)(F)F)c3)nc12` [Compound 47]: the “% Fold Act. (percent maximum fold activation)” value is recorded as “A (Fold activation >200%)” and the “EC1.5 (concentration of test compound that results in 150% activation of SIRT1)” value is given as “A (EC1.5<1.0 uM)”.

With `O=C(Nc1ncccn1)c1cccc2ccc(-c3cccc(C(F)(F)F)c3)nc12` [Compound 48], the “% Fold Act. (percent maximum fold activation)” value is listed as “A (Fold activation >200%)” and the “EC1.5 (concentration of test compound that results in 150% activation of SIRT1)” value is “A (EC1.5<1.0 uM)”.

As to `Cc1ccnc(NC(=O)c2cccc3ccc(-c4cccc(C(F)(F)F)c4)nc23)n1` [Compound 49], the “% Fold Act. (percent maximum fold activation)” value is listed as “A (Fold activation >200%)” and the “EC1.5 (concentration of test compound that results in 150% activation of SIRT1)” value was “A (EC1.5<1.0 uM)”.

Take `Cc1noc(C)c1NC(=O)c1cccc2ccc(-c3cccc(C(F)(F)F)c3)nc12` [Compound 50]: the “EC1.5 (concentration of test compound that results in 150% activation of SIRT1)” value was “C (EC1.5>25 uM)”.

On to `Cc1cc(NC(=O)c2cccc3ccc(-c4cccc(C(F)(F)F)c4)nc23)n(C)n1` [Compound 51], for which the “% Fold Act. (percent maximum fold activation)” value was “A (Fold activation >200%)” and the “EC1.5 (concentration of test compound that results in 150% activation of SIRT1)” value was “B (EC1.5 1-25 uM)”.

On to `Cc1nc(NC(=O)c2cccc3ccc(-c4cccc(C(F)(F)F)c4)nc23)sc1C` [Compound 52], for which the “% Fold Act. (percent maximum fold activation)” value was “A (Fold activation >200%)” and the “EC1.5 (concentration of test compound that results in 150% activation of SIRT1)” value was “A (EC1.5<1.0 uM)”.

Turning to `Cc1cc(C)nc(NC(=O)c2cccc3ccc(-c4cccc(C(F)(F)F)c4)nc23)c1` [Compound 53], the “% Fold Act. (percent maximum fold activation)” value is “A (Fold activation >200%)” and the “EC1.5 (concentration of test compound that results in 150% activation of SIRT1)” value is recorded as “A (EC1.5<1.0 uM)”.

Take `O=C(Nc1nc(-c2ccccc2)cs1)c1cccc2ccc(-c3cccc(C(F)(F)F)c3)nc12` [Compound 54]: the “EC1.5 (concentration of test compound that results in 150% activation of SIRT1)” value was “C (EC1.5>25 uM)”.

For the compound `O=C(Nc1nc2ccccc2s1)c1cccc2ccc(-c3cccc(C(F)(F)F)c3)nc12` [Compound 55], the “% Fold Act. (percent maximum fold activation)” value is listed as “A (Fold activation >200%)” and the “EC1.5 (concentration of test compound that results in 150% activation of SIRT1)” value is recorded as “A (EC1.5<1.0 uM)”.

As to `O=C(Nc1ccc(Cl)cn1)c1cccc2ccc(-c3cccc(C(F)(F)F)c3)nc12` [Compound 56], the “% Fold Act. (percent maximum fold activation)” value was “B (Fold Activation <200%)” and the “EC1.5 (concentration of test compound that results in 150% activation of SIRT1)” value is reported as “A (EC1.5<1.0 uM)”.

In the case of `O=C(Nc1cccnc1Cl)c1cccc2ccc(-c3cccc(C(F)(F)F)c3)nc12` [Compound 57], the “% Fold Act. (percent maximum fold activation)” value is “B (Fold Activation <200%)” and the “EC1.5 (concentration of test compound that results in 150% activation of SIRT1)” value is on record as “B (EC1.5 1-25 uM)”.

Regarding `O=C(Nc1ccc(Cl)nc1)c1cccc2ccc(-c3cccc(C(F)(F)F)c3)nc12` [Compound 58], the “% Fold Act. (percent maximum fold activation)” value is recorded as “B (Fold Activation <200%)” and the “EC1.5 (concentration of test compound that results in 150% activation of SIRT1)” value was “A (EC1.5<1.0 uM)”.
